Assay results from PMC8291137 (ACS Medicinal Chemistry Letters, 2021).

How the values were obtained:
[1] = Shake-flask aqueous solubility in Britton-Robinson buffer
[2] = test system: Vero E6 cells

Compound: Cn1cc(-c2cc(-c3cc(Cl)cc(OCc4scnc4C(F)(F)F)c3)c(=O)n(-c3cccnc3)c2)c(=O)[nH]c1=O [Compound 21]
- aqueous solubility (in words) [1]: good aqueous solubility
- cytotoxicity (in words) [2]: no cytotoxicity
